For 31 compounds, IC50 results are on record in US20090163586A1, “Bis-(Sulfonylamino) Derivatives in Therapy 205” (AstraZeneca AB, priority 2007, published 2009).

For this experiment, the target named is T1, human mPGES-1 (Homo sapiens, UniProt O14684).
T1 sequence (O14684 1-152): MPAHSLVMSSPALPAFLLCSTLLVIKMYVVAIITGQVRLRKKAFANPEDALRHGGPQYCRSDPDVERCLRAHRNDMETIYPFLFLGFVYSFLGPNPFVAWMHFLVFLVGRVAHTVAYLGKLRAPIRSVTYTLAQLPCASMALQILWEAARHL
Put plainly: Microsomal prostaglandin E synthase biochemical assay. The note with it: microsome preparation containing human mPGES-1; PGH2 10.8 μM, GSH 2.5 mM, pH 6.8; PGE2 by HTRF; average of at least n=2. As to the method: Compounds were tested as inhibitors of microsomal prostaglandin E synthase activity in microsomal prostaglandin E synthase assays and whole cell assays. These assays measure prostaglandin E2 (PGE2) synthesis which is taken as a measure of prostaglandin E synthase activity. Microsomal prostaglandin E synthase biochemical assays used microsomal prostaglandin E synthase-1 in microsomal preparations. The source of the microsomes can be for example interleukin-1β-stimulated human A549 cells (which express human mPGES-1) or Sf9 cells transfected with plasmids encoding human mPGES-1 cDNA. The whole blood assay [described by Patrignani, P. et al., Journal of Pharmacology and Experimental Therapeutics, 1994, vol. 271, pp 1705-1712] was used as the whole cell assay for testing the compounds. Whole blood provides a protein and cell rich milieu for the study of biochemical efficacy of anti-inflammatory compounds such as prostaglandin synthase inhibitors. To study the inhibitory activities of these compounds, human blood was stimulated with lipopolysaccharide (LPS) for typically 16 hours to induce mPGES-1 expression, after which the concentration of produced PGE2 was measured by competitive-immuno assay (homogeneous time-resolved fluorescence, HTRF) as read out for effectiveness against mPGES-1-dependent PGE2 production.
Microsomal Prostaglandin E Synthase Biochemical Assay
A solution of test compound was added to a diluted microsome preparation containing human mPGES-1 and pre-incubated for 15 minutes in potassium phosphate buffer pH 6.8 with cofactor glutathione (GSH). Corresponding solutions without test compound were used as positive controls, and corresponding solutions without test compound and without microsomes were used as negative controls. The enzymatic reaction was then started by addition of the substrate PGH2 in an organic solution (dry acetonitrile).
The typical reaction conditions of the enzymatic reaction were thus: Test compound: ranging from 60 μM to 0.002 μM, or zero in positive and negative controls; potassium phosphate buffer pH 6.8: 50 mM; GSH: 2.5 mM; mPGES-1-containing microsomes: 2 μg/mL (sample and positive controls) or 0 μg/mL (negative control); PGH2: 10.8 μM; Acetonitrile: 7.7% (v/v); DMSO: 0.6% (v/v). The reaction was stopped after one minute by adding an acidic solution (pH 1.9) of ferric chloride and citrate (final concentrations 7 mM and 47 mM respectively), by which the PGH2 was sequestered (the PGH2 is reduced to mainly 12-hydroxy heptadecatrineoic acid (12-HHT) which is not detected by the subsequent PGE2 detection step). The resulting solution was then pH neutralized by addition of potassium phosphate buffer, prior to diluting an aliquot of the resulting solution in a weak potassium phosphate buffer (50 mM, pH 6.8) containing 0.2% BSA (w/v). [Adapted from Jacobsson et al., Proc. Natl. Acad. Sci. USA, 1999, vol. 96, pp. 7220-7225]The PGE2 formed was quantified by use of a commercial HTRF based kit (catalogue #62PG2PEC or #62P2APEC from Cisbio International). 100% activity was defined as the PGE2 production in positive controls subtracted by the PGE2 production in the negative controls. IC50 values were then determined using standard procedures.
The potency is expressed as IC50 and the value indicated is an average of at least n=2.
Background: In TR-FRET formats the signal depends on donor and acceptor labels being close together.

Broadly, the IC50 is the concentration at which inhibition is half-maximal. Lower therefore signals greater potency. With `NS(=O)(=O)c1ccccc1NS(=O)(=O)CCc1ccc(-c2cc3ccccc3o2)cc1` [Example 1, 2-[2-(4-Benzofuran-2-ylphenyl)ethylsulfonylamino]benzenesulfonamide], the IC50 turned out to be 130 nM.

In turn, `NS(=O)(=O)c1ccccc1NS(=O)(=O)CCc1ccc(C2Cc3ccccc3O2)cc1` (stereo not shown) [Example 2, 2-[2-[4-(2,3-Dihydrobenzofuran-2-yl)phenyl]ethylsulfonylamino]benzenesulfonamide] showed an IC50 of 270 nM.

For `NS(=O)(=O)c1ccccc1NS(=O)(=O)/C=C/c1ccc(-c2cc3ccccc3o2)cc1` [Example 3, 2-[[(E)-2-(4-Benzofuran-2-ylphenyl)ethenyl]sulfonylamino]benzenesulfonamide], the IC50 amounted to 140 nM.

`NS(=O)(=O)c1cc(F)ccc1NS(=O)(=O)/C=C/c1ccc(-c2cc3ccccc3o2)cc1` [Example 4, 2-[[(E)-2-(4-Benzofuran-2-ylphenyl)ethenyl]sulfonylamino]-5-fluoro-benzenesulfonamide]: the IC50 was found to be 79 nM.

In the case of `NS(=O)(=O)c1ccc(F)cc1NS(=O)(=O)/C=C/c1ccc(-c2cc3ccccc3o2)cc1` [Example 5, 2-[[(E)-2-(4-Benzofuran-2-ylphenyl)ethenyl]sulfonylamino]-4-fluoro-benzenesulfonamide], the IC50 came out at 40 nM.

Compound `NS(=O)(=O)c1c(F)cccc1NS(=O)(=O)/C=C/c1ccc(-c2cc3ccccc3o2)cc1` [Example 6, 2-[[(E)-2-(4-Benzofuran-2-ylphenyl)ethenyl]sulfonylamino]-6-fluoro-benzenesulfonamide] returned an IC50 of 74 nM.

On to `CC(Cc1ccc(Cl)cc1)S(=O)(=O)Nc1ccccc1S(N)(=O)=O` (stereo not shown) [Example 7, 2-[1-(4-Chlorophenyl)propan-2-ylsulfonylamino]benzenesulfonamide], for which the IC50 was found to be 280 nM.

Compound `CC(Cc1ccccc1)S(=O)(=O)Nc1ccccc1S(N)(=O)=O` (stereo not shown) [Example 8, 2-(1-Phenylpropan-2-ylsulfonylamino)benzenesulfonamide] returned an IC50 of 2200 nM.

For `C/C(=C\c1ccc(Cl)cc1)S(=O)(=O)Nc1ccccc1S(N)(=O)=O` [Example 9, 2-[[(E)-1-(4-Chlorophenyl)prop-1-en-2-yl]sulfonylamino]benzenesulfonamide], it took 610 nM to reach half-maximal inhibition (IC50).

`CC(Cc1ccc(Cl)cc1)S(=O)(=O)Nc1cc(F)ccc1S(N)(=O)=O` (stereo not shown) [Example 10, 2-[1-(4-Chlorophenyl)propan-2-ylsulfonylamino]-4-fluoro-benzenesulfonamide] showed an IC50 of 450 nM.

Compound `C/C(=C\c1ccc(Cl)cc1)S(=O)(=O)Nc1cc(F)ccc1S(N)(=O)=O` [Example 11, 2-[[(E)-1-(4-chlorophenyl)prop-1-en-2-yl]sulfonylamino]-4-fluoro-benzenesulfonamide] displayed an IC50 of 590 nM.

Consider `C/C(=C\c1ccc(Cl)cc1)S(=O)(=O)Nc1ccc(F)cc1S(N)(=O)=O` [Example 12, 2-[[(E)-1-(4-Chlorophenyl)prop-1-en-2-yl]sulfonylamino]-5-fluoro-benzenesulfonamide], for which the IC50 turned out to be 1000 nM.

`C/C(=C\c1ccc(Cl)cc1)S(=O)(=O)Nc1cccc(F)c1S(N)(=O)=O` [Example 13, 2-[[(E)-1-(4-Chlorophenyl)prop-1-en-2-yl]sulfonylamino]-6-fluoro-benzenesulfonamide]: half-maximal inhibition (IC50) required 520 nM.

The compound `C/C(=C\c1ccc(Cl)cc1)S(=O)(=O)Nc1c(F)cccc1S(N)(=O)=O` [Example 14, 2-[[(E)-1-(4-Chlorophenyl)prop-1-en-2-yl]sulfonylamino]-3-fluoro-benzenesulfonamide] returned an IC50 of 3100 nM.

For the compound `C/C(=C\c1ccc(Cl)cc1)S(=O)(=O)Nc1ccc(C)cc1S(N)(=O)=O` [Example 15, 2-[[(E)-1-(4-Chlorophenyl)prop-1-en-2-yl]sulfonylamino]-5-methyl-benzenesulfonamide], the IC50 amounted to 7600 nM.

In turn, `NS(=O)(=O)c1ccccc1NS(=O)(=O)CCc1ccc(-c2ccco2)cc1` [Example 16, 2-[2-[4-(2-Furyl)phenyl]ethylsulfonylamino]benzenesulfonamide] displayed an IC50 of 190 nM.

`NS(=O)(=O)c1ccccc1NS(=O)(=O)CCc1ccc(C2CCCO2)cc1` (stereo not shown) [Example 17, 2-[2-[4-(Oxolan-2-yl)phenyl]ethylsulfonylamino]benzenesulfonamide] had an IC50 of 5300 nM.

Compound `NS(=O)(=O)c1ccccc1NS(=O)(=O)/C=C/c1ccc(-c2ccco2)cc1` [Example 18, 2-[[(E)-2-[4-(2-Furyl)phenyl]ethenyl]sulfonylamino]benzenesulfonamide] yielded an IC50 of 44 nM.

On to `NS(=O)(=O)c1ccccc1NS(=O)(=O)CCc1ccc(OC(F)F)cc1` [Example 19, 2-[2-[4-(Difluoromethoxy)phenyl]ethylsulfonylamino]benzenesulfonamide], for which the IC50 is 1400 nM.

`NS(=O)(=O)c1ccccc1NS(=O)(=O)/C=C/c1ccc(OC(F)F)cc1` [Example 20, 2-[[(E)-2-[4-(Difluoromethoxy)phenyl]ethenyl]sulfonylamino]benzenesulfonamide]: the IC50 amounted to 700 nM.

`NS(=O)(=O)c1cc(F)ccc1NS(=O)(=O)CCc1ccc(Cl)cc1` [Example 21, 2-[2-(4-Chlorophenyl)ethylsulfonylamino]-5-fluoro-benzenesulfonamide]: the IC50 is 320 nM.

Regarding `NS(=O)(=O)c1cc(F)ccc1NS(=O)(=O)/C=C/c1ccc(Cl)cc1` [Example 22, 2-[[(E)-2-(4-Chlorophenyl)ethenyl]sulfonylamino]-5-fluoro-benzenesulfonamide], the IC50 turned out to be 430 nM.

`NS(=O)(=O)c1ccc(F)cc1NS(=O)(=O)/C=C/c1ccc(Cl)c(Cl)c1` [Example 23, 2-[[(E)-2-(3,4-Dichlorophenyl)ethenyl]sulfonylamino]-4-fluoro-benzenesulfonamide] displayed an IC50 of 270 nM.

In turn, `NS(=O)(=O)c1cc(F)ccc1NS(=O)(=O)/C=C/c1ccc(Cl)c(Cl)c1` [Example 24, 2-[[(E)-2-(3,4-Dichlorophenyl)ethenyl]sulfonylamino]-5-fluoro-benzenesulfonamide] showed an IC50 of 300 nM.

In the case of `NS(=O)(=O)c1c(F)cccc1NS(=O)(=O)/C=C/c1ccc(Cl)c(Cl)c1` [Example 25, 2-[[(E)-2-(3,4-Dichlorophenyl)ethenyl]sulfonylamino]-6-fluoro-benzenesulfonamide], the midpoint of inhibition, the IC50, lay at 77 nM.

Consider `COc1ccc(Br)cc1/C=C/S(=O)(=O)Nc1cc(F)ccc1S(N)(=O)=O` [Example 26, 2-[[(E)-2-(5-Bromo-2-methoxy-phenyl)ethenyl]sulfonylamino]-4-fluoro-benzenesulfonamide], for which it took 420 nM to reach half-maximal inhibition (IC50).

As for `COc1ccc(Br)cc1/C=C/S(=O)(=O)Nc1ccc(F)cc1S(N)(=O)=O` [Example 27, 2-[[(E)-2-(5-Bromo-2-methoxy-phenyl)ethenyl]sulfonylamino]-5-fluoro-benzenesulfonamide], the IC50 came out at 270 nM.

Turning to `COc1ccc(Br)cc1/C=C/S(=O)(=O)Nc1cccc(F)c1S(N)(=O)=O` [Example 28, 2-[[(E)-2-(5-Bromo-2-methoxy-phenyl)ethenyl]sulfonylamino]-6-fluoro-benzenesulfonamide], the IC50 amounted to 290 nM.

`COc1ccc(Br)cc1/C=C/S(=O)(=O)Nc1ccccc1S(N)(=O)=O` [Example 29, 2-[[(E)-2-(5-Bromo-2-methoxy-phenyl)ethenyl]sulfonylamino]benzenesulfonamide] yielded a 50% inhibitory concentration (IC50) of 280 nM.

`N#Cc1ccc(/C=C/S(=O)(=O)Nc2cc(F)ccc2S(N)(=O)=O)cc1` [Example 30, 2-[[(E)-2-(4-Cyanophenyl)ethenyl]sulfonylamino]-4-fluoro-benzenesulfonamide] registered an IC50 of 5900 nM.

As for `N#Cc1ccc(/C=C/S(=O)(=O)Nc2ccc(F)cc2S(N)(=O)=O)cc1` [Example 31, 2-[[(E)-2-(4-Cyanophenyl)ethenyl]sulfonylamino]-5-fluoro-benzenesulfonamide], the IC50 came to 5700 nM.
